Experimental data as given in PubChem BioAssay (NCI).
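Test compounds were applied to cells in 96-well plates for 48 hours at 5 doses. TGI is the concentration that stops growth completely.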

Key:
Assay in all cases: NCI anticancer screen, dose series, 48 h
MOLT-4 leukemia = test system: MOLT-4 leukemia
RXF 393 renal = test system: RXF 393 renal
BT-549 breast = test system: BT-549 breast
EKVX NSCLC = test system: EKVX NSCLC
HCT-116 colon = test system: HCT-116 colon
MDA-N = test system: MDA-N
HT29 colon = test system: HT29 colon
UACC-62 melanoma = test system: UACC-62 melanoma
SNB-19 CNS = test system: SNB-19 CNS
786-0 renal = test system: 786-0 renal
SW-620 colon = test system: SW-620 colon
OVCAR-5 ovarian = test system: OVCAR-5 ovarian
T-47D breast = test system: T-47D breast
KM12 colon = test system: KM12 colon
MCF7 breast = test system: MCF7 breast
K-562 leukemia = test system: K-562 leukemia
IGROV1 ovarian = test system: IGROV1 ovarian
ACHN renal = test system: ACHN renal
HS 578T breast = test system: HS 578T breast
PC-3 prostate = test system: PC-3 prostate
SF-268 CNS = test system: SF-268 CNS
HOP-92 NSCLC = test system: HOP-92 NSCLC
OVCAR-3 ovarian = test system: OVCAR-3 ovarian
HCT-15 colon = test system: HCT-15 colon
MDA-MB-231 breast = test system: MDA-MB-231 breast
HOP-62 NSCLC = test system: HOP-62 NSCLC
SF-295 CNS = test system: SF-295 CNS
CCRF-CEM leukemia = test system: CCRF-CEM leukemia
HL-60(TB) leukemia = test system: HL-60(TB) leukemia
SK-MEL-28 melanoma = test system: SK-MEL-28 melanoma
SN12C renal = test system: SN12C renal
A549 NSCLC = test system: A549 NSCLC
NCI-H23 lung = test system: NCI-H23 lung
RPMI-8226 leukemia = test system: RPMI-8226 leukemia
UACC-257 melanoma = test system: UACC-257 melanoma
TK-10 renal = test system: TK-10 renal
HCC-2998 colon = test system: HCC-2998 colon
NCI-H460 lung = test system: NCI-H460 lung
SF-539 CNS = test system: SF-539 CNS
COLO 205 colon = test system: COLO 205 colon
MDA-MB-435 = test system: MDA-MB-435
U251 CNS = test system: U251 CNS
UO-31 renal = test system: UO-31 renal
CAKI-1 renal = test system: CAKI-1 renal
DU-145 prostate = test system: DU-145 prostate
OVCAR-4 ovarian = test system: OVCAR-4 ovarian
M14 melanoma = test system: M14 melanoma
SK-MEL-2 melanoma = test system: SK-MEL-2 melanoma
LOX IMVI melanoma = test system: LOX IMVI melanoma
NCI/ADR-RES ovarian = test system: NCI/ADR-RES ovarian
OVCAR-8 ovarian = test system: OVCAR-8 ovarian
SK-MEL-5 melanoma = test system: SK-MEL-5 melanoma
NCI-H226 lung = test system: NCI-H226 lung
SK-OV-3 ovarian = test system: SK-OV-3 ovarian
A498 renal = test system: A498 renal
SNB-75 CNS = test system: SNB-75 CNS
SR leukemia = test system: SR leukemia
NCI-H522 lung = test system: NCI-H522 lung
MALME-3M melanoma = test system: MALME-3M melanoma

CCN1C(=O)C(=C/C=C/c2ccc([N+](=O)[O-])cc2)C(=O)N(CC)C1=S
TGI (MOLT-4 leukemia): > 100 µM
TGI (RXF 393 renal): 33.1 µM
TGI (BT-549 breast): 32.5 µM
TGI (EKVX NSCLC): 62.7 µM
TGI (HCT-116 colon): 31.9 µM
TGI (MDA-N): 67 µM
TGI (HT29 colon): 50.7 µM
TGI (UACC-62 melanoma): 34.7 µM
TGI (SNB-19 CNS): > 100 µM
TGI (786-0 renal): 34.3 µM
TGI (SW-620 colon): 36.8 µM
TGI (OVCAR-5 ovarian): > 100 µM
TGI (T-47D breast): > 100 µM
TGI (KM12 colon): 60.7 µM
TGI (MCF7 breast): 52.5 µM
TGI (K-562 leukemia): 48.4 µM
TGI (IGROV1 ovarian): 32.6 µM
TGI (ACHN renal): 32.1 µM
TGI (HS 578T breast): 55.1 µM
TGI (PC-3 prostate): 34.6 µM
TGI (SF-268 CNS): 53 µM
TGI (HOP-92 NSCLC): 34.2 µM
TGI (OVCAR-3 ovarian): 32.9 µM
TGI (HCT-15 colon): > 100 µM
TGI (MDA-MB-231 breast): 47 µM
TGI (HOP-62 NSCLC): 39.2 µM
TGI (SF-295 CNS): > 100 µM
TGI (CCRF-CEM leukemia): > 100 µM
TGI (HL-60(TB) leukemia): > 100 µM
TGI (SK-MEL-28 melanoma): 31.9 µM
TGI (SN12C renal): 57.3 µM
TGI (A549 NSCLC): > 100 µM
TGI (NCI-H23 lung): 32.8 µM
TGI (RPMI-8226 leukemia): 95.8 µM
TGI (UACC-257 melanoma): 32.2 µM
TGI (TK-10 renal): 37.8 µM
TGI (HCC-2998 colon): > 100 µM
TGI (NCI-H460 lung): > 100 µM
TGI (SF-539 CNS): 40.1 µM
TGI (COLO 205 colon): > 100 µM
TGI (MDA-MB-435): 47.7 µM
TGI (U251 CNS): 32.4 µM
TGI (UO-31 renal): 37.2 µM
TGI (CAKI-1 renal): 68.7 µM
TGI (DU-145 prostate): 33.3 µM
TGI (OVCAR-4 ovarian): > 100 µM
TGI (M14 melanoma): > 100 µM
TGI (SK-MEL-2 melanoma): 65.3 µM
TGI (LOX IMVI melanoma): 33.2 µM
TGI (NCI/ADR-RES ovarian): 45.2 µM
TGI (OVCAR-8 ovarian): 39.7 µM
TGI (SK-MEL-5 melanoma): 42.8 µM
TGI (NCI-H226 lung): > 100 µM
TGI (SK-OV-3 ovarian): > 100 µM

O=c1[nH]/c(=C/c2ccc(OCc3ccccc3)cn2)c(=O)[nH]/c1=C/c1ccc(O)cc1
TGI (MOLT-4 leukemia): 1.65 µM
TGI (RXF 393 renal): 7.38 µM
TGI (BT-549 breast): 8.63 µM
TGI (EKVX NSCLC): > 89.1 µM
TGI (HCT-116 colon): > 69.6 µM
TGI (MDA-N): 0.591 µM
TGI (HT29 colon): > 100 µM
TGI (UACC-62 melanoma): > 100 µM
TGI (SNB-19 CNS): > 100 µM
TGI (786-0 renal): 1.45 µM
TGI (SW-620 colon): > 100 µM
TGI (OVCAR-5 ovarian): > 100 µM
TGI (T-47D breast): > 63.8 µM
TGI (MCF7 breast): > 100 µM
TGI (K-562 leukemia): > 100 µM
TGI (IGROV1 ovarian): 13.4 µM
TGI (ACHN renal): > 100 µM
TGI (HS 578T breast): > 100 µM
TGI (PC-3 prostate): > 100 µM
TGI (HOP-92 NSCLC): > 77.6 µM
TGI (OVCAR-3 ovarian): > 76.3 µM
TGI (HCT-15 colon): > 100 µM
TGI (A498 renal): > 76.7 µM
TGI (MDA-MB-231 breast): > 100 µM
TGI (HOP-62 NSCLC): > 100 µM
TGI (SF-295 CNS): > 100 µM
TGI (CCRF-CEM leukemia): > 100 µM
TGI (HL-60(TB) leukemia): 2.87 µM
TGI (SK-MEL-28 melanoma): > 100 µM
TGI (SN12C renal): 8.9 µM
TGI (A549 NSCLC): > 53.5 µM
TGI (NCI-H23 lung): 5.44 µM
TGI (RPMI-8226 leukemia): 9.95 µM
TGI (UACC-257 melanoma): > 100 µM
TGI (TK-10 renal): 3.03 µM
TGI (HCC-2998 colon): 5.21 µM
TGI (NCI-H460 lung): > 100 µM
TGI (SF-539 CNS): 2.09 µM
TGI (SNB-75 CNS): 3.05 µM
TGI (COLO 205 colon): 10.3 µM
TGI (MDA-MB-435): 1.64 µM
TGI (U251 CNS): > 87.9 µM
TGI (UO-31 renal): 1.4 µM
TGI (SR leukemia): 4.88 µM
TGI (CAKI-1 renal): 3.08 µM
TGI (NCI-H522 lung): 0.806 µM
TGI (OVCAR-4 ovarian): 0.59 µM
TGI (M14 melanoma): 3.78 µM
TGI (SK-MEL-2 melanoma): > 46 µM
TGI (LOX IMVI melanoma): 1.26 µM
TGI (NCI/ADR-RES ovarian): 2.09 µM
TGI (OVCAR-8 ovarian): > 32.4 µM
TGI (SK-MEL-5 melanoma): 20.8 µM
TGI (NCI-H226 lung): > 100 µM
TGI (MALME-3M melanoma): 8.67 µM
TGI (SK-OV-3 ovarian): > 100 µM
